Assay results taken from patent publication US9399032B2, “Methods and compositions for treating degenerative and ischemic disorders” (The General Hospital Corporation, priority 2009, dated 2016).
Counter-ions that a name gives are not always drawn.

System: MCH58 fibroblasts
Assay: Glucose versus galactose cell growth screen (metabolic state-dependent lethality)
Details: not given

`C[CH2][Hg][S]c1ccccc1C(=O)[O-].[Na+]` [thimerosal] was tested, and the “Sglu/gal (log10 fold change) Score” value was −0.22.

Same assay, conditions: approximately 10 μM compound, 72 hours; log10 fold change of normalized cell number in glucose versus galactose

In order of rising “Sglu/gal (log10 fold change) Score” value:
1. Cl.Cl.O=C1c2c(O)ccc(O)c2C(=O)c2c(NCCNCCO)ccc(NCCNCCO)c21 [mitoxanthrone hydrochloride]  −0.73
2. COC(=O)[C@]1(C)CC[C@]2(C)CC[C@]3(C)C4=CCc5c(cc(O)c(O)c5C)[C@]4(C)CC[C@@]3(C)[C@@H]2C1 [pristimerol]  −0.45
3. COC(=O)[C@]1(C)CC[C@]2(C)CC[C@]3(C)C4=CC=C5C(=CC(=O)C(O)=C5C)[C@]4(C)CC[C@@]3(C)[C@@H]2C1 [pristimerin]  −0.37
4. C=C1C(=O)O[C@H]2C[C@@H]1C(OC(C)=O)C/C(C)=C/CC/C(C)=C/CC[C@@]2(C)O (stereo partly shown) [crassin acetate]  −0.35
5. C[C@@]12C(=O)OC(=O)[C@]1(C)[C@H]1CC[C@@H]2O1 [cantharidin]  −0.33
6. CC(C)=CCCC1(C)C=Cc2c(O)c3c(c(CC=C(C)C)c2O1)OC12C(=CC4CC1C(C)(C)OC2(C/C=C(/C)C(=O)O)C4O)C3=O (stereo not shown) [dihydrogambogic acid]  −0.32
7. Cc1c(O)c(O)cc2c1CC=C1[C@@]2(C)CC[C@@]2(C)[C@@H]3C[C@](C)(C(=O)O)CC[C@]3(C)CC[C@]12C [dihydrocelastrol]  −0.31
8. CO[C@@H]1C[C@@H](C[C@H]2CC[C@H](C)[C@H]([C@@H](C)C(=O)O)O2)O[C@]2(O[C@](C)([C@H]3CC[C@@](C)([C@@H]4O[C@@H]([C@H]5O[C@@](O)(CO)[C@H](C)C[C@@H]5C)C[C@@H]4C)O3)C[C@H]2C)[C@@H]1C [nigericin sodium]  −0.31
9. CC(=O)O[C@@H]1C[C@@]2(C)[C@H](c3ccoc3)C[C@H]3O[C@]32[C@]2(C)C(=O)C(O)=C3C(C)(C)C(=O)C=C[C@]3(C)[C@@H]12 [anthothecol]  −0.30
10. CCN(CC)CCCC(C)Nc1c2ccc(Cl)cc2nc2ccc(OC)cc12 (stereo not shown) [quinacrine hydrochloride]  −0.30
11. Nc1c2ccccc2nc2ccccc12 [aminacrine]  −0.29
12. CC1=C(O)C(=O)C=C2C1=CC=C1[C@@]2(C)CC[C@@]2(C)[C@@H]3C[C@](C)(C(=O)O)CC[C@]3(C)CC[C@]12C [celastrol]  −0.29
13. O=c1[nH]c(=O)n([C@H]2C[C@H](O)[C@@H](CO)O2)cc1F [floxuridine]  −0.28
14. CC[C@]1(O)C[C@@H]2CN(CCc3c([nH]c4ccccc34)[C@@](C(=O)OC)(c3cc4c(cc3OC)N(C)[C@H]3[C@@](O)(C(=O)OC)[C@H](OC(C)=O)[C@]5(CC)C=CCN6CC[C@]43[C@@H]65)C2)C1 [vinblastine sulfate]  −0.27
15. COc1cc([C@@H]2c3cc4c(cc3[C@H](O)[C@H]3COC(=O)[C@H]23)OCO4)cc(OC)c1OC [Podophyllotoxin]  −0.27
16. COc1cc2c(c(OC)c1OC)-c1ccc(OC)c(=O)cc1[C@@H](NC(C)=O)CC2 [Colchicine]  −0.26
17. CC(C)N(C(=O)CCl)c1ccccc1 [propachlor]  −0.26
18. O=c1[nH]c(=O)n([C@H]2C[C@H](O)[C@@H](CO)O2)cc1C(F)(F)F [Trifluridine]  −0.26
19. picropodophyllotoxin acetate  −0.24
20. COc1ccc(C[C@H]2NC[C@H](O)[C@H]2OC(C)=O)cc1 [anisomycin]  −0.24
21. Oc1c(Cl)cc(Cl)c2cccnc12 [chloroxine]  −0.23
22. CC1(C)C(=O)C=C[C@]2(C)[C@H]3CC[C@@]4(C)[C@H](c5ccoc5)OC(=O)[C@H]5O[C@]54[C@]3(C)C=C[C@@H]12 [7-desacetoxy-6,7-dehydrogedunin]  −0.22
23. CC[C@H]1CN2CCc3cc(OC)c(OC)cc3[C@@H]2C[C@@H]1C[C@H]1NCCc2cc(OC)c(OC)cc21 [emetine]  −0.22
24. C=C1C(=O)O[C@@H]2C[C@@]3(C)CCC[C@H](C)C3=C[C@H]12 [helenine]  −0.22
25. CC(=O)O[C@H]1C(=O)[C@@]2(C)[C@H]([C@H](OC(=O)c3ccccc3)[C@]3(O)C[C@H](OC(=O)[C@H](O)[C@@H](NC(=O)c4ccccc4)c4ccccc4)C(C)=C1C3(C)C)[C@]1(OC(C)=O)CO[C@@H]1C[C@@H]2O [paclitaxel]  −0.22
26. CO[C@H]1C=C[C@@]23c4cc5c(cc4CN(C[C@@H]2O)[C@H]3C1)OCO5 [crinamine]  −0.22
27. C[C@]12CC[C@H](O)C[C@H]1CC[C@@H]1[C@@H]2[C@H](O)C[C@]2(C)[C@@H](C3=CC(=O)OC3)CC[C@]12O [sarmentogenin]  −0.21
28. CC(=O)O[C@H]1CC[C@@]2(C)[C@H](CC[C@@H]3[C@@H]2CC[C@]2(C)[C@@H](C4=CC(=O)OC4)[C@@H](OC(C)=O)C[C@]32O)C1 [gitoxigenin diacetate]  −0.21
29. CO[C@H]1[C@H](O)[C@H](O[C@H]2CC[C@@]3(C)[C@H](CC[C@@H]4[C@@H]3CC[C@]3(C)[C@@H](C5=CC(=O)OC5)CC[C@]43O)C2)O[C@@H](C)[C@@H]1O [neriifolin]  −0.21
30. CN(C)CCC=C1c2ccccc2C=Cc2ccccc21 [Cyclobenzaprine hydrochloride]  0.13
31. C#C[C@]1(OC(C)=O)CC[C@H]2[C@@H]3CCC4=C[C@@H](OC(C)=O)CC[C@@H]4[C@H]3CC[C@@]21C [Ethynodiol diacetate]  0.15
32. O=C1O[C@H]([C@@H](O)CO)C(O)=C1O [Ascorbic acid]  0.15
33. CN[C@H]1CC[C@@H](c2ccc(Cl)c(Cl)c2)c2ccccc21 [Sertraline hydrochloride]  0.15
34. O=C(Nc1ccc([N+](=O)[O-])cc1Cl)c1cc(Cl)ccc1O [Niclosamide]  0.15
35. COc1ccccc1OCCNCC(O)COc1cccc2[nH]c3ccccc3c12 (stereo not shown) [Carvedilol]  0.15
36. CC(C)n1c(/C=C/C(O)CC(O)CC(=O)O)c(-c2ccc(F)cc2)c2ccccc21 (stereo not shown) [Fluvastatin sodium salt]  0.16
37. [H]/N=C(\N/C(=N/[H])NCCCCCCNC(=N)NC(=N)Nc1ccc(Cl)cc1)Nc1ccc(Cl)cc1 [Chlorhexidine]  0.16
38. CCN[C@H]1C[C@H](C)S(=O)(=O)c2sc(S(N)(=O)=O)cc21 [Dorzolamide hydrochloride]  0.17
39. C[C@@H]1CC[C@H]2[C@@H](C)C(=O)O[C@@H]3O[C@@]4(C)CC[C@@H]1[C@]32OO4 [Artemisinin]  0.17
40. O=c1[nH]c2ccccc2n1C1CCN(CCCC(c2ccc(F)cc2)c2ccc(F)cc2)CC1 [Pimozide]  0.18
41. Clc1ccc(C(Cn2ccnc2)OCc2csc3c(Cl)cccc23)c(Cl)c1 (stereo not shown) [Sertaconazole nitrate]  0.19
42. CN1CCC[C@@H]1CCO[C@](C)(c1ccccc1)c1ccc(Cl)cc1 [Clemastine fumarate]  0.19
43. CN(C/C=C/c1ccccc1)Cc1cccc2ccccc12 [Naftifine hydrochloride]  0.19
44. OC(c1cc(C(F)(F)F)nc2c(C(F)(F)F)cccc12)C1CCCCN1 (stereo not shown) [Mefloquine]  0.20
45. CCN(CC)CCOc1ccc(C(=C(Cl)c2ccccc2)c2ccccc2)cc1 [Clomiphene citrate]  0.21
46. CCOC(=O)C1=C[C@]2(CC)CCCN3CCc4c(n1c1ccccc41)[C@@H]32 [Vinpocetine]  0.23
47. N=C(N)c1ccc(OCCCCCOc2ccc(C(=N)N)cc2)cc1 [Pentamidine isethionate]  0.24
48. COc1cc2c(cc1OC)[C@@H]1C(=O)c3ccc(O)c(CC=C(C)C)c3O[C@@H]1CO2 [Rotenonic acid]  0.33
49. COc1cc2c(cc1OC)[C@@H]1C(=O)c3ccc(OC)c(CC=C(C)C)c3O[C@@H]1CO2 [Rotenonic acid, methyl ether]  0.34
50. O=C(N/N=C/c1ccc([N+](=O)[O-])o1)c1ccc(O)cc1 [Nifuroxazide]  0.34
51. CCCCCCCCCCCCCCCC[N+](C)(C)CCN(Cc1ccc(OC)cc1)c1ncccn1 [Thonzonium bromide]  0.38
52. Cc1cc(N)c2ccccc2[n+]1CCCCCCCCCC[n+]1c(C)cc(N)c2ccccc21 [Dequalinium dichloride]  0.42
53. Clofilium tosylate  0.42
54. CCCCC(CC)CNC(=N)NC(=N)NCCCCCCNC(=N)NC(=N)NCC(CC)CCCC (stereo not shown) [Alexidine dihydrochloride]  0.44
55. Nonoxynol-9  0.46
56. COc1c(-c2coc3cc4c(cc3c2=O)CC(O)C(C)(C)O4)ccc2c1C=CC(C)(C)O2 (stereo not shown) [Mundulone]  0.50
57. CC(C)c1c(O)ccc2c1CCC1C(C)(C(=O)O)CCCC21C (stereo not shown) [Totarol-19-carboxylic acid]  0.80
58. Cc1cc(C(C)(C)CC(C)(C)C)ccc1OCCOCC[N+](C)(C)Cc1ccccc1.[Cl-] [Methyl benzethonium chloride]  0.80
59. COc1cc2c(cc1OC)[C@@H]1C(=O)c3ccc4c(c3O[C@@H]1CO2)CC(C(C)C)O4 (stereo partly drawn) [Beta-dihydrorotenone]  0.85
60. COc1cc2c(cc1OC)[C@@H]1C(=O)c3c(O)cc4c(c3O[C@@H]1CO2)C=CC(C)(C)O4 [Alpha-toxicarol]  0.91

Same assay, conditions: approximately 10 μM compound, 72 hours; log10 fold change of normalized cell number in glucose versus galactose; listed as Methylbenzethonium chloride

For `Cc1cc(C(C)(C)CC(C)(C)C)ccc1OCCOCC[N+](C)(C)Cc1ccccc1.[Cl-]` [Methyl benzethonium chloride], the “Sglu/gal (log10 fold change) Score” value was 0.46.

Same assay, conditions: galactose versus glucose

In the case of `CN(C)CCC=C1c2ccccc2CCc2ccccc21` [amitriptyline], the “inhibitory activity against cell growth in galactose (SAR analysis)” value is reported as “moderate inhibitory activity”.
In the case of `CNCCC=C1c2ccccc2CCc2ccccc21` [nortriptyline], the “inhibitory activity against cell growth in galactose (SAR analysis)” value is reported as “moderate inhibitory activity”.
